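A five-concentration, 48-hour dose response in 96-well plates underlies each endpoint, interpolated linearly between surrounding concentrations. GI50 marks 50% less growth. TGI is the concentration that stops growth completely.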
Columns and labels:
Test in all cases: growth of human tumour cells (NCI), 48 h
[1] = test system: BT-549 breast
[2] = test system: HL-60(TB) leukemia
[3] = test system: HOP-62 NSCLC
[4] = test system: HOP-92 NSCLC
[5] = test system: MDA-MB-435
[6] = test system: MOLT-4 leukemia
[7] = test system: NCI-H226 lung
[8] = test system: RXF 393 renal
[9] = test system: U251 CNS
[10] = test system: UO-31 renal

SMILES | TGI [1] | TGI [2] | TGI [3] | TGI [4] | TGI [5] | TGI [6] | TGI [7] | TGI [8] | TGI [9] | TGI [10] | GI50 [1] | GI50 [2] | GI50 [3] | GI50 [4] | GI50 [5] | GI50 [6] | GI50 [7] | GI50 [8] | GI50 [9] | GI50 [10]
Clc1ccc(CCNC2(c3cc4ccccc4s3)CCCCC2)cc1Cl | 84.5 µM | 40.9 µM | 84.3 µM | 29.8 µM | > 100 µM | 37.9 µM | 40.7 µM | 36.7 µM | 65.4 µM | 36.7 µM | – | – | – | – | – | – | – | – | – | –
CCOC(=O)/C=C(/C(=O)OCC)n1cc(C)c(=O)n(Cc2cnnn2COCCOC(C)=O)c1=O | 31.7 µM | 13.5 µM | > 100 µM | 8.22 µM | 38.2 µM | 18.8 µM | 28.7 µM | 29.6 µM | 57.1 µM | 30.4 µM | – | – | – | – | – | – | – | – | – | –
COc1ccc2c(c1)N(Cc1ccc(Cl)cc1)CCC2N1CCCC1=O (stereo not drawn) | 19.6 µM | 24.9 µM | 42.7 µM | 20.5 µM | 15 µM | 24.6 µM | 34.5 µM | 10.9 µM | 59.6 µM | 14.6 µM | 3.23 µM | 5.34 µM | 4.27 µM | 2.75 µM | 3.77 µM | 4.9 µM | 2.89 µM | 2.77 µM | 3.28 µM | 1.79 µM
O=c1[nH]c2ccccc2c(O)c1Cc1ccccc1 | > 100 µM | > 100 µM | > 100 µM | > 100 µM | > 100 µM | > 100 µM | > 100 µM | > 100 µM | > 100 µM | – | – | – | – | – | – | – | – | – | – | –
Cc1ccc(S(=O)(=O)N2CCC[C@@H]2C(=O)O[C@@H]2CCC3CC=CC32)cc1 (stereo partly drawn) | 44.3 µM | 64.2 µM | 97.2 µM | 44 µM | > 100 µM | > 100 µM | 68.3 µM | 66.5 µM | > 100 µM | 41.5 µM | – | – | – | – | – | – | – | – | – | –
N[C@H]1c2c(Br)sc(Br)c2C(=O)[C@H]1O | 16.5 µM | 10.5 µM | 36.5 µM | 38.9 µM | 36.7 µM | > 22 µM | 62 µM | 16.2 µM | 29.7 µM | 47.2 µM | – | – | – | – | – | – | – | – | – | –
COC(=O)CNC(=O)C(Cc1ccccc1)NC(=O)c1ccc(-c2ccc(Cl)cc2Cl)o1 (stereo not drawn) | > 100 µM | 41.2 µM | 78.8 µM | 39.1 µM | > 100 µM | 49.2 µM | > 100 µM | 73.5 µM | > 100 µM | > 100 µM | – | – | – | – | – | – | – | – | – | –
COc1cc(C2c3cc4c(cc3OC(NNc3ccccc3)C2C)OCO4)cc(OC)c1OC (stereo not drawn) | 33.4 µM | 4.46 µM | 10.4 µM | 52.1 µM | 1.31 µM | > 47.3 µM | 6.92 µM | > 94.3 µM | 13.2 µM | 6.79 µM | – | – | – | – | – | – | – | – | – | –
COC1/C=C/C=C(/C)Cc2cc(O)c(Cl)c(c2)N(C)C(=O)CC(OC(=O)C(C)C)C2(C)OC2C(C)C2CC1(O)NC(=O)O2 (stereo not drawn) | 49.4 µM | > 100 µM | > 100 µM | > 100 µM | > 100 µM | > 100 µM | > 100 µM | > 100 µM | > 43.9 µM | > 100 µM | – | – | – | – | – | – | – | – | – | –
COC(=O)c1c(O)ccc2c1c1cc3ccccc3cc1n2Cc1cc(OC)cc(OC)c1 | > 100 µM | 30.6 µM | > 100 µM | > 100 µM | 1.86 µM | > 100 µM | > 100 µM | > 26.5 µM | > 100 µM | > 100 µM | – | – | – | – | – | – | – | – | – | –
Oc1c(CN2CCCC2)ccc2cccnc12 | > 100 µM | > 53.9 µM | > 65.8 µM | > 100 µM | > 100 µM | > 100 µM | > 64 µM | > 100 µM | > 100 µM | 14.1 µM | – | – | – | – | – | – | – | – | – | –
O=C(CCBr)N1CCN(C(=O)CCBr)CC1 | 85.3 µM | 206 µM | 155 µM | 284 µM | 245 µM | 215 µM | 201 µM | 150 µM | 114 µM | 293 µM | – | – | – | – | – | – | – | – | – | –
CC(C)(C)NC1=NC(C(F)(F)F)(C(F)(F)F)NC(=O)N1 | > 100 µM | 59.6 µM | > 100 µM | > 100 µM | > 100 µM | > 100 µM | > 100 µM | > 100 µM | > 100 µM | > 100 µM | – | – | – | – | – | – | – | – | – | –
COc1ccc(-n2c(SC(CN3CCOCC3)CN3CCCC3=O)nc3ccccc3c2=O)cc1 (stereo not drawn) | > 100 µM | > 100 µM | – | > 100 µM | > 100 µM | > 100 µM | > 100 µM | > 100 µM | > 100 µM | > 100 µM | – | – | – | – | – | – | – | – | – | –
